# Source: paper PMC8729037 (European journal of pharmacology, 2019)
# What was measured:
# NCI-H838 cells = assay: MTT proliferation assay, NCI-H838 cells; conditions: lapatinib combined with SR48692, Fig. 7
# HER2 = assay: Western blot, HER2 tyrosine phosphorylation; format: cell-based, human; conditions: 100 nM NTS; for Inhibition of NTS-induced HER2 tyrosine phosphorylation (in words): 5 μM DPI or 5 mM Tiron, NCI-H838, Fig. 5
# tubulin = assay: Western blot, total tubulin; format: cell-based, human; conditions: lapatinib; control; Fig. 6
# neurotensin receptor 1 [1] = biological target: neurotensin receptor 1 (Homo sapiens, UniProt P30989); assay: Receptor binding, inhibition of specific
# Chain of neurotensin receptor 1 (Homo sapiens, UniProt P30989) (P30989 whole entry): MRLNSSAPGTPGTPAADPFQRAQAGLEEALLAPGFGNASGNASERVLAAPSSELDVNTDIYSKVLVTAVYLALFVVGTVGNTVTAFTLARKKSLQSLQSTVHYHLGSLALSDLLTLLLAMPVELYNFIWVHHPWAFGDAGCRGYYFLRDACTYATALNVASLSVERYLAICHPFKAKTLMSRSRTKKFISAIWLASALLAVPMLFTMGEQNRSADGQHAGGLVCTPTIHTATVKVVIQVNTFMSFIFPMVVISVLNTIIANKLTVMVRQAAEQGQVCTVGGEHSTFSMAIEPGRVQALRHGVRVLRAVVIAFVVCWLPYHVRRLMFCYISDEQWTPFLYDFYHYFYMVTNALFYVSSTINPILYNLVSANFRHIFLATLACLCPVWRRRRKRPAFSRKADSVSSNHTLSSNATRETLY
# EGFR [2] = assay: Western blot, EGFR tyrosine phosphorylation; format: cell-based, human; conditions: 100 nM NTS; for Effect on NTS-induced EGFR tyrosine phosphorylation (in words): Fig. 6; for Inhibition of NTS-induced EGFR tyrosine phosphorylation (in words): 5 μM DPI or 5 mM Tiron, NCI-H838, Fig. 5
# ERK = assay: Western blot, ERK tyrosine phosphorylation; format: cell-based, human; conditions: 100 nM NTS; for Inhibition of NTS-induced ERK tyrosine phosphorylation (in words): 5 μM DPI or 5 mM Tiron, NCI-H838, Fig. 5
# Nox and Duox enzymes = conditions: ref Moody et al., 2018; Doroshow et al., 2012; cited from earlier work
# [3] = test system: c-Src, β-catenin, PYK-2 and the EGFR; conditions: A549 cells; ref Moody et al., 2014; cited from earlier work
# neurotensin receptor 1 [4] = conditions: colorectal cancer; ref Wang et al., 2010; cited from earlier work
# EGFR [5] = conditions: NSCLC cell lines; ref Moody et al., 2014; cited from earlier work
# [6] = test system: PC-3M prostate cancer cells; conditions: ref Valerie et al., 2011; cited from earlier work
compound,measurement,setting,value
CS(=O)(=O)CCNCc1ccc(-c2ccc3ncnc(Nc4ccc(OCc5cccc(F)c5)c(Cl)c4)c3c2)o1 [Lapatinib],Shift of SR48692 dose-response curve (in words),NCI-H838 cells,shifted the SR48692 dose-response curve to the left
same,Effect on NTS-induced HER2 tyrosine phosphorylation (in words),"HER2; 1 or 10 μM lapatinib, Fig. 6",significantly reduced
same,Effect on total tubulin (in words),tubulin,no effect
same,IC50,neurotensin receptor 1 [1],> 2000 nM
same,Effect on NTS-induced EGFR tyrosine phosphorylation (in words),EGFR [2]; 0.1 μM lapatinib,impaired
same,Effect on NTS-induced EGFR tyrosine phosphorylation (in words),EGFR [2]; 1 or 10 μM lapatinib,significantly reduced
same,Effect on NTS-induced ERK tyrosine phosphorylation (in words),"ERK; 1 or 10 μM lapatinib, Fig. 6",significantly reduced
"c1ccc2c(c1)[I+]c1ccccc1-2 [DPI, diphenylene iodonium]",Inhibition of NTS-induced HER2 tyrosine phosphorylation (in words),HER2,significantly inhibited
same,Inhibition of Nox and Duox enzymes (in words),Nox and Duox enzymes,inhibits all Nox and Duox enzymes
same,Inhibition of NTS-induced EGFR tyrosine phosphorylation (in words),EGFR [2],significantly inhibited
same,Inhibition of NTS-induced ERK tyrosine phosphorylation (in words),ERK,significantly inhibited
CC(C)(C)n1nc(-c2ccc(Cl)cc2)c2c(N)ncnc21 [PP2],Effect on neurotensin-induced EGFR tyrosine phosphorylation (in words),[3],blocked
CCCC(=O)[O-].[Na+] [Sodium butyrate],Neurotensin receptor 1 densities (in words),neurotensin receptor 1 [4],reduced
CNC(=O)[C@H](Cc1c[nH]c2ccccc12)NC(=O)[C@@H](CC(=O)NO)CC(C)C [GM6001],Effect on neurotensin-induced EGFR tyrosine phosphorylation (in words),[3],blocked
COc1cc2ncnc(Nc3ccc(F)c(Cl)c3)c2cc1OCCCN1CCOCC1 [Gefitinib],IC50,neurotensin receptor 1 [1],> 2000 nM
COc1ccc2c(c1)CC[C@@H]1[C@@H]2CC[C@]2(C)[C@@H](NCCCCCCN3C(=O)C=CC3=O)CC[C@@H]12 [U73122],Effect on neurotensin-induced EGFR tyrosine phosphorylation (in words),[3],blocked
O=S(=O)(O)c1cc(O)c(O)c(S(=O)(=O)O)c1 [Tiron],Inhibition of NTS-induced HER2 tyrosine phosphorylation (in words),HER2,significantly inhibited
same,Effect on neurotensin-induced EGFR tyrosine phosphorylation (in words),EGFR [5],reduced
same,Inhibition of NTS-induced EGFR tyrosine phosphorylation (in words),EGFR [2],significantly inhibited
same,Inhibition of NTS-induced ERK tyrosine phosphorylation (in words),ERK,significantly inhibited
COc1cccc(OC)c1-c1cc(C(=O)NC2(C(=O)O)C3CC4CC(C3)CC2C4)nn1-c1ccnc2cc(Cl)ccc12 (stereo not drawn) [SR48692],Effect on neurotensin-induced EGFR tyrosine phosphorylation (in words),EGFR [5],reduced
same,Sensitivity to ionizing radiation (in words),[6],enhanced sensitivity to ionizing radiation
same,IC50,neurotensin receptor 1 [1],160 ± 25 nM
C[C@@H]1CN([C@H]2CC[C@](C#N)(c3ccc(F)cc3)CC2)CC[C@]1(C(=O)O)c1ccccc1 [Levocabastine],IC50,neurotensin receptor 1 [1],> 2000 nM
